According to US20050143336A1 (priority 2003, published 2005):
“Also recorded” adds a separate entry of the source.

Experiments:
PGE2 production = PGE2 production assay in cells transfected with FUS1-nanoparticles; type: cell-based, Human; conditions: naproxen 0.5 mM prior to FUS1-nanoparticles
Description: PGE2 production assay. Cells were seeded in 6-well plates (1-3×10^6 cells/well) and incubated at 37° C. Twenty-four hours later, the culture medium was replaced and replenished with fresh medium supplemented with 0.2% serum. […] At 3.5 h after treatment cells were transfected with FUS1-nanoparticles (2.5 μg DNA). The amount of PGE2 secreted into the culture supernatant at various time (2 h, 4 h, and 15 h) points was determined using the PGE2 enzyme immunoassay (Cayman Chemicals, Ann Arbor, Mich.). Assay was performed according to manufacturer's protocol.

mouse TNF-α = conditions: naproxen 15 mg/Kg orally 3 h prior to FUS1-nanoparticles 100 μg DNA i.v.
Description: In vivo experiments. To determine the effect of intravenous administration of FUS1-nanoparticles on inflammation and the potential use of inhibitors, in vivo experiments were conducted in immunocompetent female C3H mice. Mice were divided into three groups (n=5/group). […] Group 3 received intravenous injection of FUS1-nanoparticles only. The amount of plasmid DNA injected was 100 μg. […] At 2 h, 4 h, 6 h and 15 h after treatment with FUS1-nanoparticles, animals were euthanized and blood and organs (lung, liver, spleen) collected. Blood samples were analyzed for mouse TNF-α by ELISA (R&D Systems, MI). Tissue samples were analyzed for expression of inflammation-associated signaling molecules by western blotting (Ito et al., 2003).

[1] = tested on: NFκB and STAT3 DNA binding; assay: Electrophoretic mobility shift assay of lung nuclear extracts for NFκB and STAT3; type: in vivo, C3H mice; conditions: in the presence of naproxen
Description: Electrophoretic mobility shift assay. […] Santa Cruz Biotechnology, Santa Cruz, Calif.) and NF-κB consensus oligonucleotide […] These probes were end-labelled with [γ-^32P]ATP(3000 Ci/mmol at 10 mCi/ml; Amersham Biosciences, Sunnyvale, Calif.). DNA binding reactions were performed at room temperature in a 25-μl reaction mixture containing 6-μl of nuclear extract and 5 μl of 5× binding buffer (20% (w/v) Ficoll, 50 mM HEPES (pH 7.9), 5 mM EDTA, 5 mM DTT). […] Samples were electrophoresed through 5.5% polyacrylamide gels in 0.5×TBE at 160 V for 3 h, dried under vacuum, and exposed to X-ray film after overnight expose with hyperfilm at -80° C. The gel was then dried and subjected to autoradiography. […] The minced tissue was homogenized using a Dounce homogenizer and centrifuged at 14,000 rpm at 4° C. for 10 min. […] The supernatant (nuclear extract) was collected and stored at -80° C. until use. The protein concentrationm was measured by the method of Bradford with BSA as the standard. […] Briefly, Double-stranded oligonucleotides consensus NFκB (Promega) were end-labelled with [γ-^32P]-ATP using T4 polynucleotide kinase. […] The bands were visualized by autoradiography.

[2] = tested on: p38, JNK, ERK, pATF2, pcJun, STAT3, COX-2; assay: Western blot of signaling molecules in lung, liver and spleen after FUS1-nanoparticle with or without naproxen; type: in vivo, C3H mice
Description: Western blot analysis for the Signaling molecules. At the time of western blot analysis, organs were slowly thawed on ice. […] Whole Cell lysates were collected in an Eppendorf tube and sonicated for 30 seconds and heated in a water bath at 95° C. for 5 mins and then centrifuged at 13000 rpm for 10 min at 4° C. The supernatants were mixed with 5% 2-mercaptoethanol and stored at −80° C. Protein concentrations was determined by BCA protein assay. Aliquots of cell extracts containing 50 μg of total protein were resolved in 10% SDS-PAGE and transferred from gel to nitrocellulose membrane (Hybond-ECL; Amersham Pharmacia Biotech, UK) and then blocked for 1 h at room temperature (5% nonfat milk powder and 0.1% Tween 20 in TBS or PBS). Then the membranes were incubated with the primary antibodies, phosphospcific p38 (1:1000), phosphospecific pJNK (1:1000), phosphospecific p44/42 (1:1000), phospho ATF2 (1:1000), phospho cJun (1:1000), phospho STAT3 (1:1000) and COX-2 (1:1000). The membranes were then incubated with HRP-conjugated rabbit IgG Ab (Amersham) and the bound antibodies were visualized by enhanced chemiluminescence (Amersham; Piscataway, N.J.). The expression of α-actin was used as the loading control.

[3] = tested on: serum TNF-α, IL-6, Il-1α and IFN-γ; assay: Serum cytokine profile after FUS1-nanoparticle with or without naproxen (ELISA); type: in vivo, C3H mice; conditions: naproxen 15 mg/kg orally pretreatment
Description: (§1) Cytokine profiles, Organ toxicity and Signalling molecules in C3H mice. To determine the cytokine profile, organ toxicity, signaling molecules responsible for inflammation, experiments were performed using immunocompetent female C3H mice. […] The amount of FUS1 plasmid injected was 100 μg. Serum and organ cytokine levels were determined by ELISA for murine TNF-α and murine Il-6. At indicated times after injection, blood was obtained via aspiration after right heart puncture. The blood was allowed to stand for 4 hours at 4° C. and then was centrifuged twice at 15,000 g for 10 minutes at 4° C. The supernatants (serum) were kept at −80° C. until used. Cytokine concentrations were quantified using specific ELISA kits (R&D systems) according to manufacturer's instructions. Organs were collected at 2, 4, and 15 h and were snap-frozen in liquid nitrogen and stored at […] until time of ELISA and Western blot analysis. At the time of ELISA, organs were slowly thawed on ice. The lung, liver and spleen was homogenized in 750 μl PBS containing a cocktail of protease inhibitors using a tissue homogenizer. The cytoplasmic fraction was isolated as the supernatant fraction following centrifugation at 15,000 g for 20 min at 4° C. The supernatant was used for the determination of TNF-α and IL-6 were quantitated by ELISA kits purchased from R&D Sytems and Biosource.fraction.

[4] = tested on: TNF-α, IL-6 in lungs, liver and spleen; assay: Organ cytokine levels (lungs, liver, spleen) after FUS1-nanoparticle with or without naproxen (ELISA); type: in vivo, C3H mice; conditions: naproxen 15 mg/kg orally pretreatment
Description: as §1

[5] = tested on: p38MAPK, pJNK, p44/42MAPK, pATF-2, pc-Jun, COX-2 in MRC-9 fibroblast cells; assay: Inflammation-associated signaling molecules in MRC-9 cells transfected with FUS1-nanoparticles (western blot); type: cell-based, Human; conditions: naproxen 0.5 mM prior to FUS1-nanoparticles
Description: In vitro experiments. To determine the effect of FUS1-nanoparticles on the activation of signaling molecules associated with inflammation, MRC-9 fibroblast cells were seeded in six-well plates (5×10^5 cells/well) and incubated overnight at 37° C. and 5% CO2. […] Two-three hours after treatment, cells were transfected with FUS1-nanoparticles (2.5 μg DNA) in 0.2% serum medium. Cells were harvested at different time-points (2 h, 4 h, 15 h) after transfection, washed, and cell lysates prepared as previously described (Ramesh et al., 2001a). Untransfected cells treated with PBS served as control in these experiments. Cell lysates were subjected to western blotting analysis and probed with various antibodies as previously described (Ramesh et al., 2001b; Ito et al., 2003). In all the experiments, β-actin was detected using anti-β-actin antibody (Sigma Chemicals, St. Louis, Mo.) as a measure of internal loading control.

[6] = tested on: TNF-α, IL-6 and PGE2 production in RAW 264.7 cells; assay: Inflammatory cytokines production assay in RAW 264.7 macrophage cells; type: cell-based, Mouse; conditions: RAW 264.7, naproxen 0.5 mM before FUS1-nanoparticle
Description: The following day, tissue culture medium was replaced with fresh 0.2% medium and incubated overnight at 37° C. and 5% CO2. […] Assay was performed according to manufacturer's protocol.

[7] = tested on: proinflammatory cytokines (TNF, IL-1, IL-6, IFN-γ); type: in vivo, C3H mice
Description: In vivo treatment of immunocompetent animals by intravenous injection of DOTAP:Cholesterol-FUS1 complex. Female C3H mice were divided into 2 groups (n=15/group). […] Complexes were injected intravenously via the tail vein using a total volume of 200 μl. […] Blood from animals in all groups were collected at 2, 4, 6, and 15 h after injection of liposome-DNA complex, and analyzed for proinflammatory cytokines (TNF, IL-1, IL-6, IFN-γ) by ELISA (R&D Systems).

luciferase expression = assay: Luciferase transgene expression in cells transfected with luc-nanoparticles; type: cell-based, Human; conditions: naproxen prior to luc-nanoparticles; 2 h, 4 h, 15 h
Description: To determine the effect of inhibitors on transgene expression, cells were transfected with a marker gene, luciferase (luc), complexed with DOTAP:Chol. nanoparticles (luc-nanopartilces). All other experimental conditions were the same as described above. Luciferase expression was determined using the luciferase assay kit (Promega, Madison, Wis.) as previously described (Ramesh et al., 2001b). Luciferase expression was expressed as relative light units per mg of protein (RLU/mg). Assays were performed in triplicates. Experiments were performed two times and the results represented as the average of two separate experiments.

Question: With `COc1ccc2cc([C@H](C)C(=O)O)ccc2c1` [Naproxen, naproxen] as the molecule, how does the “inhibition of PGE2” value (PGE2 production) read?
Answer: almost complete; also recorded: significantly inhibition in PGE2 levels

Question: What about the “secreted PGE2 levels” value (PGE2 production; 2-15 h) of the same molecule?
Answer: 33 to 120 pg/mL

Question: What about the “TNF-α expression levels in blood at 2 h” value (mouse TNF-α) of the same molecule?
Answer: 411 pg/mL

Question: What about the “activation of NFκB and STAT3 in lung” value [1] of the same molecule?
Answer: suppressed

Question: And the “phosphorylation of JNK, ATF-2, cJun, STAT3 ser727 and Tyr 705 in liver and spleen” value ([2]; naproxen 15 mg/kg)?
Answer: inhibited

Question: And the “p38 phosphorylation in lung” value ([2]; naproxen 15 mg/kg 2 h before FUS1-nanoparticle, all time points)?
Answer: complete inhibition

Question: And the “JNK and ERK phosphorylation in lung” value ([2]; naproxen 15 mg/kg, 2 and 4 h)?
Answer: partial inhibition

Question: What about the “COX-2 induced by FUS1-nanoparticle” value ([2]; naproxen 15 mg/kg, 2 h) of the same molecule?
Answer: inhibition

Question: What about the “phosphorylation of ATF-2, cJUN and STAT3 (Ser 727, Tyr705) in lung” value ([2]; naproxen 15 mg/kg, 4 h and 15 h) of the same molecule?
Answer: inhibited

Question: What about the “serum TNF-α, IL-6, Il-1α and IFN-γ levels induced by FUS1-nanoparticle” value [3] of the same molecule?
Answer: significantly inhibited

Question: And the “TNF-α, IL-6 levels in lungs, liver and spleen” value [4]?
Answer: significantly inhibited

Question: And the “expression of downstream substrates pATF-2, pc-Jun and COX-2” value [5]?
Answer: decreased expression

Question: And the “expression of p38MAPK, pJNK and p44/42MAPK” value [5]?
Answer: significant inhibition

Question: What about the “production of TNF-α, IL-6 and PGE2” value [6] of the same molecule?
Answer: suppressed

Question: And the “reduction in all of the cytokine levels” value ([7]; naproxen 15 mg/kg 2 hour before DOTAP:Chol-FUS1 complex (100 μg DNA) i.v., serum)?
Answer: 50%

Question: And the “proinflammatory cytokine production, effect of naproxen” value ([7]; naproxen 15 mg/kg before complex)?
Answer: significant suppression of proinflammatory cytokine production

Question: And the “luciferase activity (RLU/mg protein), naproxen treated vs untreated” value (luciferase expression)?
Answer: greatly increased; also recorded: slight increase in luciferase activity
